Key:
[1] = tested on: Ba/F3 cells expressing FLT3-ITD mutant isoforms; assay: Cell-viability assay of Ba/F3 populations stably expressing FLT3-ITD mutant isoforms; type: cell-based; details: 48 hours
Experimental: Stable Ba/F3 lines were generated by using retroviral spinfection with the appropriate mutated plasmid as outlined above, with the exception of the exclusion of polybrene. At 48 h post-infection, puromycin was added to infected cells at a concentration of 4 μg/mL. Cells were selected in the presence of puromycin for 7-10 days and subsequently IL-3 was washed twice from the cells with media and cells were selected in RPMI medium 1640+10% FCS in the absence of IL-3. Exponentially growing BaiF3 cells (5×10^4) were plated in each well of a 24-well dish with 1 ml of RPMI 1640+10% FCS containing the appropriate concentration of drug as indicated in triplicate. Cells were allowed to expand for 2 days and were counted by using a Vi-cell XR automated cell viability analyzer (Beckman Coulter). The mean number of viable cells at varying concentrations of drug was normalized to the median number of viable cells in the no-drug sample for each mutant. Error bars represent the standard deviation. Numerical IC50 values were generated using non-linear best-fit regression analysis using Prism 5 software (GraphPad).

FLT3-ITD mutant isoforms = assay: Immunoblotting with anti-phospho-FLT3 / anti-FLT3 on Ba/F3 lysates (cell-based biochemical assay); details: five AC220-resistant FLT3-ITD substitutions; 90 minutes exposure
Experimental: Exponentially growing Ba/F3 cells stably expressing each mutant along with a WT FLT3-ITD control were plated in RPMI medium 1640+10% FCS supplemented with kinase inhibitor at the indicated concentration. After a 90-minute incubation, the cells were washed in phosphate buffered saline (PBS) and lysed in Cell Extraction Buffer (Invitrogen) supplemented with protease and phosphatase inhibitors. The lysate was clarified by centrifugation and quantitated by BCA assay (Thermo Scientific). Protein was subjected to sodium dodecylsulfate polyacrylamide electrophoresis and transferred to nitrocellulose membranes. Immunoblotting was performed using anti-phospho-FLT3 (Cell Signaling) and anti-FLT3 S18 antibody (Santa Cruz Biotechnology).

[2] = tested on: Ba/F3 cells expressing FLT3-ITD mutant isoforms; details: literature report (ref 18); cited from earlier work

Structure (SMILES): CNC(=O)c1cc(Oc2ccc(NC(=O)Nc3ccc(Cl)c(C(F)(F)F)c3)cc2)ccn1 [sorafenib]
- resistance conferred by D835F mutation in vitro ([1]; FLT3-ITD/D835F vs FLT3-ITD): cross-resistance
- cross-resistance of AC220-resistant mutations in cell-based growth assay ([1]; five AC220-resistant FLT3-ITD substitutions): substantial cross-resistance
- cross-resistance of AC220-resistant mutations in biochemical assay (phospho-FLT3) (FLT3-ITD mutant isoforms): substantial cross-resistance
- sensitivity of FLT3-ITD/D835V in vitro, previously reported [2]: retain sensitivity
